# From ChEMBL document CHEMBL4295262, “Evaluation of the utility of stem-cell derived cardiomyocytes for drug proarrhythmic potential” (2019)
# Assays:
# Settings in all cases: human, ipsc-cm
# [1] = (§1) Electrical activity assay on cell lines treated with a given drug. DMSO was used as a vehicle and a control, unblinded dofetilide was used as a control.
# [2] = as §1; remark: listed apart in the source
# [3] = as §1; remark: listed apart in the source
# [4] = as §1; assay type: ADME, cell-based
# [5] = as §1; assay type: ADME, cell-based; parameters: FPDc: unit not given here
# [6] = as §1; assay type: cell-based; parameters: APDc: unit not given here
# [7] = as §1; remark: listed apart in the source
# [8] = as §1; assay type: ADME, cell-based; remark: listed apart in the source
# [9] = 0.03169 µM, concentration (um) 0.0316912 uM
# [10] = 0.1001 µM, concentration (um) 0.100144 uM
# [11] = 0.3165 µM, concentration (um) 0.316456 uM
# [12] = 0.0009507 µM, concentration (um) 0.000950736 uM
# [13] = 0.003004 µM, concentration (um) 0.00300433 uM
# [14] = 0.009494 µM, concentration (um) 0.00949367 uM
# [15] = 0.03 µM, concentration (um) 0.03 uM
# [16] = 0.9507 µM, concentration (um) 0.950736 uM
# [17] = 3.004 µM, concentration (um) 3.00433 uM
# [18] = 9.494 µM, concentration (um) 9.49367 uM
# [19] = 30 µM, concentration (um) 30 uM
smiles,measurement,setting,value
O=C(CCCN1CC=C(n2c(=O)[nH]c3ccccc32)CC1)c1ccc(F)cc1 [DROPERIDOL],FPD measurement,[1]; 0.03169 µM,1 Values Out Of 1 Were Excluded Due To Quiescence Or 0 Fpdc
same,FPDc,[1]; 0.03169 µM,1 Values Out Of 1 Were Excluded Due To Quiescence Or 0 Fpdc
same,FPD measurement,[1]; 0.1001 µM,1 Values Out Of 1 Were Excluded Due To Quiescence Or 0 Fpdc
same,FPDc,[1]; 0.1001 µM,1 Values Out Of 1 Were Excluded Due To Quiescence Or 0 Fpdc
same,FPD measurement,[1]; 0.3165 µM,1 Values Out Of 1 Were Excluded Due To Quiescence Or 0 Fpdc
same,FPDc,[1]; 0.3165 µM,1 Values Out Of 1 Were Excluded Due To Quiescence Or 0 Fpdc
same,FPD measurement,[1]; 1 µM,1 Values Out Of 1 Were Excluded Due To Quiescence Or 0 Fpdc
same,FPDc,[1]; 1 µM,1 Values Out Of 1 Were Excluded Due To Quiescence Or 0 Fpdc
same,FPDc,[2]; 0.03169 µM,71.23
same,FPDc,[2]; 0.1001 µM,90.23
same,FPDc,[2]; 0.3165 µM,123.3
same,FPDc,[2]; 1 µM,More Than Half The Wells Had A Quiescence Event Or Fpdc Readings Of 0
same,APDc,[3]; 0.03169 µM,57.78
same,FPD measurement,[3]; 0.03169 µM,57.78 FPDc
same,APDc,[3]; 0.1001 µM,53.48
same,FPD measurement,[3]; 0.1001 µM,53.48 FPDc
same,APDc,[3]; 0.3165 µM,58.08
same,FPD measurement,[3]; 0.3165 µM,58.08 FPDc
same,APDc,[3]; 1 µM,67.51
same,FPD measurement,[3]; 1 µM,67.51 FPDc
same,FPD measurement,[4]; [9],60.21 FPDc
same,FPDc,[4]; [9],6 Values Out Of 6 Were Excluded Due To Quiescence Or 0 Fpdc
same,FPD measurement,[4]; [10],132.5 FPDc
same,FPDc,[4]; [10],6 Values Out Of 6 Were Excluded Due To Quiescence Or 0 Fpdc
same,FPD measurement,[4]; [11],151.8 FPDc
same,FPDc,[4]; [11],6 Values Out Of 6 Were Excluded Due To Quiescence Or 0 Fpdc
same,FPD measurement,"[4]; 1 µM, concentration (um) 1 uM",41.51 FPDc
same,FPDc,"[4]; 1 µM, concentration (um) 1 uM",6 Values Out Of 6 Were Excluded Due To Quiescence Or 0 Fpdc
O=c1[nH]c2ccccc2n1C1CCN(CCCC(c2ccc(F)cc2)c2ccc(F)cc2)CC1 [PIMOZIDE],FPD measurement,[1]; 0.0009507 µM,1 Values Out Of 1 Were Excluded Due To Quiescence Or 0 Fpdc
same,FPDc,[1]; 0.0009507 µM,1 Values Out Of 1 Were Excluded Due To Quiescence Or 0 Fpdc
same,FPD measurement,[1]; 0.003004 µM,1 Values Out Of 1 Were Excluded Due To Quiescence Or 0 Fpdc
same,FPDc,[1]; 0.003004 µM,1 Values Out Of 1 Were Excluded Due To Quiescence Or 0 Fpdc
same,FPD measurement,[1]; 0.009494 µM,1 Values Out Of 1 Were Excluded Due To Quiescence Or 0 Fpdc
same,FPDc,[1]; 0.009494 µM,1 Values Out Of 1 Were Excluded Due To Quiescence Or 0 Fpdc
same,FPD measurement,[1]; 0.03 µM,1 Values Out Of 1 Were Excluded Due To Quiescence Or 0 Fpdc
same,FPDc,[1]; 0.03 µM,1 Values Out Of 1 Were Excluded Due To Quiescence Or 0 Fpdc
same,FPDc,[5]; [12],18.43
same,FPD measurement,[5]; [13],5 Values Out Of 5 Were Excluded Due To Quiescence Or 0 Apdc
same,FPDc,[5]; [13],26.86
same,FPDc,[5]; [14],37.06
same,FPDc,[5]; [15],13.57
same,FPD measurement,[4]; [12],46.31 FPDc
same,FPDc,[4]; [12],6 Values Out Of 6 Were Excluded Due To Quiescence Or 0 Fpdc
same,FPD measurement,[4]; [13],49.59 FPDc
same,FPDc,[4]; [13],6 Values Out Of 6 Were Excluded Due To Quiescence Or 0 Fpdc
same,FPD measurement,[4]; [14],61.97 FPDc
same,FPDc,[4]; [14],6 Values Out Of 6 Were Excluded Due To Quiescence Or 0 Fpdc
same,FPD measurement,[4]; [15],56.98 FPDc
same,FPDc,[4]; [15],6 Values Out Of 6 Were Excluded Due To Quiescence Or 0 Fpdc
same,APDc,[6]; [12],66.03
same,FPD measurement,[6]; [12],66.03 FPDc
same,APDc,[6]; [13],67.09
same,FPD measurement,[6]; [13],67.09 FPDc
same,APDc,[6]; [14],74.77
same,FPD measurement,[6]; [14],74.77 FPDc
same,APDc,[6]; [15],98.75
same,FPD measurement,[6]; [15],98.75 FPDc
C=C[C@H]1C[N@@]2CC[C@H]1C[C@@H]2[C@@H](O)c1ccnc2ccc(OC)cc12 [QUINIDINE],FPD measurement,[7]; 0.9507 µM,66.27 FPDc
same,FPDc,[7]; 0.9507 µM,66.27
same,FPD measurement,[7]; 3.004 µM,More Than Half The Wells Had A Quiescence Event Or Fpdc Readings Of 0
same,FPDc,[7]; 3.004 µM,More Than Half The Wells Had A Quiescence Event Or Fpdc Readings Of 0
same,FPD measurement,[7]; 9.494 µM,More Than Half The Wells Had A Quiescence Event Or Fpdc Readings Of 0
same,FPDc,[7]; 9.494 µM,More Than Half The Wells Had A Quiescence Event Or Fpdc Readings Of 0
same,FPD measurement,[7]; 30 µM,More Than Half The Wells Had A Quiescence Event Or Fpdc Readings Of 0
same,FPDc,[7]; 30 µM,More Than Half The Wells Had A Quiescence Event Or Fpdc Readings Of 0
same,FPD measurement,[8]; [16],5 Values Out Of 5 Were Excluded Due To Quiescence Or 0 Apdc
same,FPDc,[8]; [16],23.33
same,FPD measurement,[8]; [17],5 Values Out Of 5 Were Excluded Due To Quiescence Or 0 Apdc
same,FPDc,[8]; [17],5 Values Out Of 5 Were Excluded Due To Quiescence Or 0 Fpdc
same,FPD measurement,[8]; [18],More Than Half The Wells Had A Quiescence Event Or Apdc Readings Of 0
same,FPDc,[8]; [18],More Than Half The Wells Had A Quiescence Event Or Fpdc Readings Of 0
same,FPD measurement,[8]; [19],More Than Half The Wells Had A Quiescence Event Or Apdc Readings Of 0
same,FPDc,[8]; [19],More Than Half The Wells Had A Quiescence Event Or Fpdc Readings Of 0
same,APDc,[3]; 0.9507 µM,66.37
same,FPD measurement,[3]; 0.9507 µM,66.37 FPDc
same,APDc,[3]; 3.004 µM,68.44
same,FPD measurement,[3]; 3.004 µM,68.44 FPDc
same,APDc,[3]; 9.494 µM,More Than Half The Wells Had A Quiescence Event Or Apdc Readings Of 0
same,FPD measurement,[3]; 9.494 µM,More Than Half The Wells Had A Quiescence Event Or Apdc Readings Of 0
same,APDc,[3]; 30 µM,More Than Half The Wells Had A Quiescence Event Or Apdc Readings Of 0
same,FPD measurement,[3]; 30 µM,More Than Half The Wells Had A Quiescence Event Or Apdc Readings Of 0
same,FPD measurement,[5]; [16],5 Values Out Of 5 Were Excluded Due To Quiescence Or 0 Apdc
same,FPDc,[5]; [16],51.68
same,FPD measurement,[5]; [17],5 Values Out Of 5 Were Excluded Due To Quiescence Or 0 Apdc
same,FPDc,[5]; [17],48.01
same,FPD measurement,[5]; [18],5 Values Out Of 5 Were Excluded Due To Quiescence Or 0 Apdc
same,FPDc,[5]; [18],56.69
same,FPD measurement,[5]; [19],5 Values Out Of 5 Were Excluded Due To Quiescence Or 0 Apdc
same,FPDc,[5]; [19],51.52
same,FPD measurement,[4]; [16],114.6 FPDc
same,FPDc,[4]; [16],6 Values Out Of 6 Were Excluded Due To Quiescence Or 0 Fpdc
same,FPD measurement,[4]; [17],62.36 FPDc
same,FPDc,[4]; [17],6 Values Out Of 6 Were Excluded Due To Quiescence Or 0 Fpdc
same,FPDc,[4]; [18],6 Values Out Of 6 Were Excluded Due To Quiescence Or 0 Fpdc
same,FPDc,[4]; [19],6 Values Out Of 6 Were Excluded Due To Quiescence Or 0 Fpdc
